{
  "source": "paper PMC11904993",
  "about": "“Humanized Candida and NanoBiT Assays Expedite Discovery of Bdf1 Bromodomain Inhibitors With Antifungal Potential” (Advanced Science, 2025)",
  "key": {"CgBdf1 BD2": {"biological_target": "CgBdf1 BD2 (Candida glabrata, UniProt Q6FWV7)", "sequence (Q6FWV7 entry or part of it)": "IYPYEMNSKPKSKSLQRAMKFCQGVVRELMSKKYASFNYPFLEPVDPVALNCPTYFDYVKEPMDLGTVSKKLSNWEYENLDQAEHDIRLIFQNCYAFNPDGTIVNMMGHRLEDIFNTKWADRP", "experiment": "biochemical", "type": "binding, C. glabrata"}, "CaBdf1 BD1": {"biological_target": "T1, CaBdf1 BD1 (Candida albicans, UniProt Q5A4W8)", "T1 construct": "BD1 (residues 193–327) and BD2 (residues 361–501) from CaBdf1 (Uniprot ID Q5A4W8); made in house; host or cells: E. coli BL21(DE3)", "T1 sequence (Q5A4W8 193-327)": "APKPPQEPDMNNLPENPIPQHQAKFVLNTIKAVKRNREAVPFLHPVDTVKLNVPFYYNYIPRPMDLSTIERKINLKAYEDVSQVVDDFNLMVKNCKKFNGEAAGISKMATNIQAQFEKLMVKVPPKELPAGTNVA", "experiment": "HTRF assay, inhibition of H4ac4 peptide binding", "set-up": "species or system C. albicans"}, "[1]": {"system": "C. glabrata expressing humanized Bdf1 (Brd4 BDs)", "experiment": "Growth inhibition in liquid media, humanized C. glabrata strains", "settings": "for EC50: Nakaseomyces glabratus", "description": "Growth on Liquid Media with C. glabrata Lab Strains: Cells were grown at 30 °C in SC+M+C‐U medium (SC medium with 5 mM methionine, 0.25 mM cysteine, without uracil) to an OD600 of 0.5–0.8. […] Plates were incubated at 30 °C and OD600 was measured using a Multiskan FC Microplate Photometer (Thermo Fisher)."}, "[2]": {"settings": "read-out: HTRF signal, normalized (Figure 5A data)"}},
  "note": "“And” between values parts separate entries of the source, which are not always exact repeats. Equal entries are not always repeated. Where two headings read alike, the source gives them in different places.",
  "data": [
    {"compound": "CC(=O)N1c2ccc(-c3ccc(C(=O)O)cc3)cc2C(Nc2ccc(Cl)cc2)CC1C", "note": "(stereo not shown) [I-BET726]", "values": [
      {"measurement": "activity at 0.03277 µM", "setting": "CgBdf1 BD2; 24 h, CgBD2, 32.77 nM, read-out: HTRF signal, normalized (Figure 5A data)", "result": 80.2, "unit": "%"},
      {"measurement": "activity at 0.08192 µM", "setting": "CgBdf1 BD2; 24 h, CgBD2, 81.92 nM, read-out: HTRF signal, normalized (Figure 5A data)", "result": 54.9, "unit": "%"},
      {"measurement": "activity at 0.2048 µM", "setting": "CgBdf1 BD2; 24 h, CgBD2, 204.8 nM, read-out: HTRF signal, normalized (Figure 5A data)", "result": 20.4, "unit": "%"},
      {"measurement": "activity at 0.512 µM", "setting": "CgBdf1 BD2; 24 h, CgBD2, 512 nM, read-out: HTRF signal, normalized (Figure 5A data)", "result": 9.19, "unit": "%"},
      {"measurement": "activity at 1.28 µM", "setting": "CgBdf1 BD2; 24 h, CgBD2, 1280 nM, read-out: HTRF signal, normalized (Figure 5A data)", "result": 5.95, "unit": "%"},
      {"measurement": "activity at 0.00524 µM", "setting": "CgBdf1 BD2; 24 h, read-out: HTRF signal, normalized (Figure 5A data)", "result": 93.2, "unit": "%"},
      {"measurement": "IC50", "setting": "CgBdf1 BD2; Fig 5A, four replicates, read-out: IC50 (μM) BD2, C. gla. Bdf1", "result": "0.085 ± 0.012", "unit": "µM"},
      {"measurement": "remaining activity at 0.0021 µM", "setting": "CaBdf1 BD1; CaBD1, 2.10 nM, read-out: HTRF signal, normalized (Figure 5A data)", "result": 103, "unit": "%"},
      {"measurement": "remaining activity at 0.01311 µM", "setting": "CaBdf1 BD1; CaBD1, 13.11 nM, read-out: HTRF signal, normalized (Figure 5A data)", "result": 96, "unit": "%"},
      {"measurement": "remaining activity at 0.03277 µM", "setting": "CaBdf1 BD1; CaBD1, 32.77 nM, read-out: HTRF signal, normalized (Figure 5A data)", "result": 90.6, "unit": "%"},
      {"measurement": "remaining activity at 0.08192 µM", "setting": "CaBdf1 BD1; CaBD1, 81.92 nM, read-out: HTRF signal, normalized (Figure 5A data)", "result": 66.5, "unit": "%"},
      {"measurement": "remaining activity at 0.2048 µM", "setting": "CaBdf1 BD1; CaBD1, 204.8 nM, read-out: HTRF signal, normalized (Figure 5A data)", "result": 27, "unit": "%"},
      {"measurement": "remaining activity at 0.512 µM", "setting": "CaBdf1 BD1; CaBD1, 512 nM, read-out: HTRF signal, normalized (Figure 5A data)", "result": 5.16, "unit": "%"},
      {"measurement": "IC50", "setting": "CaBdf1 BD1; Fig 5A, four replicates, read-out: IC50 (μM) BD1, C. alb. Bdf1", "result": "0.27 ± 0.02", "unit": "µM"},
      {"measurement": "remaining activity at 0.00524 µM", "setting": "CaBdf1 BD1; [2]", "result": 103, "unit": "%"},
      {"measurement": "remaining activity at 0.01311 µM", "setting": "CaBdf1 BD1; [2]", "result": 99.9, "unit": "%"},
      {"measurement": "remaining activity at 1.28 µM", "setting": "CaBdf1 BD1; [2]", "result": 2.74, "unit": "%"},
      {"measurement": "remaining activity at 3.2 µM", "setting": "CaBdf1 BD1; [2]", "result": 1.61, "unit": "%"},
      {"measurement": "%Growth", "setting": "[1]; Fig 3E, 50 µM, BDF1-hBD1-flag, Exp 1-3", "result": "2.33% and 1.84% and 1.76%"},
      {"measurement": "%Growth", "setting": "[1]; Fig 3E, 50 µM, BDF1-hBD2-flag, Exp 1-3", "result": "3.8% and 4.25% and 4%"},
      {"measurement": "%Growth", "setting": "[1]; Fig 3E, 50 µM, humanized BDF1-flag, Exp 1-3", "result": "0.38% and 2.64% and 0.389%"},
      {"measurement": "%Growth", "setting": "[1]; Fig 3F, BDF1-hBD1-flag, 0.0137 µM", "result": "90.66% and 83.58% and 76.59%"},
      {"measurement": "%Growth", "setting": "[1]; Fig 3F, BDF1-hBD1-flag, 0.0412 µM", "result": "77.41% and 78.96% and 63.08%"},
      {"measurement": "%Growth", "setting": "[1]; Fig 3F, BDF1-hBD1-flag, 0.1235 µM", "result": "61.07% and 68.69% and 57.31%"},
      {"measurement": "%Growth", "setting": "[1]; Fig 3F, BDF1-hBD1-flag, 0.3704 µM", "result": "41.42% and 40.29% and 42%"},
      {"measurement": "%Growth", "setting": "[1]; Fig 3F, BDF1-hBD1-flag, 1.1111 µM", "result": "16.57% and 19.25% and 16.52%"},
      {"measurement": "%Growth", "setting": "[1]; Fig 3F, BDF1-hBD1-flag, 3.3333 µM", "result": "5.27% and 7.44% and 4.82%"},
      {"measurement": "%Growth", "setting": "[1]; Fig 3F, BDF1-hBD2-flag, 0.0137 µM", "result": "47.68% and 58.64% and 43.37%"},
      {"measurement": "%Growth", "setting": "[1]; Fig 3F, BDF1-hBD2-flag, 0.0412 µM", "result": "32.5% and 27.54% and 41.03%"},
      {"measurement": "%Growth", "setting": "[1]; Fig 3F, BDF1-hBD2-flag, 0.1235 µM", "result": "16.07% and 15.16% and 20.65%"},
      {"measurement": "%Growth", "setting": "[1]; Fig 3F, BDF1-hBD2-flag, 0.3704 µM", "result": "9.64% and 8.03% and 12.17%"},
      {"measurement": "%Growth", "setting": "[1]; Fig 3F, BDF1-hBD2-flag, 1.1111 µM", "result": "6.25% and 6.02% and 7.12%"},
      {"measurement": "%Growth", "setting": "[1]; Fig 3F, BDF1-hBD2-flag, 3.3333 µM", "result": "4.46% and 5.24% and 6.4%"},
      {"measurement": "%Growth", "setting": "[1]; Fig 3F, humanized BDF1-flag, 0.0137 µM", "result": "42.92% and 50.6% and 44.95%"},
      {"measurement": "%Growth", "setting": "[1]; Fig 3F, humanized BDF1-flag, 0.0412 µM", "result": "25.63% and 22.37% and 34.68%"},
      {"measurement": "%Growth", "setting": "[1]; Fig 3F, humanized BDF1-flag, 0.1235 µM", "result": "13.13% and 10.59% and 17.61%"},
      {"measurement": "%Growth", "setting": "[1]; Fig 3F, humanized BDF1-flag, 0.3704 µM", "result": "5.63% and 5.85% and 8.26%"},
      {"measurement": "%Growth", "setting": "[1]; Fig 3F, humanized BDF1-flag, 1.1111 µM", "result": "2.92% and 3.13% and 4.77%"},
      {"measurement": "%Growth", "setting": "[1]; Fig 3F, humanized BDF1-flag, 3.3333 µM", "result": "1.04% and 1.36% and 2.75%"},
      {"measurement": "EC50", "setting": "[1]; read-out: EC50 (μM) growth inhibition, Fig 3F, strain bdf1-hBD1-FLAG", "result": "0.25 ± 0.03", "unit": "µM"},
      {"measurement": "EC50", "setting": "[1]; read-out: EC50 (μM) growth inhibition, Fig 3F, strain bdf1-hBD2-FLAG", "result": "0.019 ± 0.002", "unit": "µM"},
      {"measurement": "EC50", "setting": "[1]; read-out: EC50 (μM), C. glabrata (hum), Fig 5C, both BDs humanized", "result": "0.043 ± 0.024", "unit": "µM"},
      {"measurement": "EC50", "setting": "[1]; read-out: EC50 growth inhibition, strain expressing humanized Bdf1", "result": 0.014, "unit": "µM"}
    ]}
  ]
}
